Source: patent US20240197687A1, “METHODS OF TREATING NEUROINFLAMMATION AND INHIBITING MONOAMINE OXIDASE-A AND RESTORING/UPREGULATING/INCREASING IL-13 AND AND PGC-1 BY ADMINISTERING ORAL DOSAGE FORM CONTAINING MICRONIZED AND NONMICRONIZED PARTICULATE METAXALONE, ALGINIC ACID AND PROPYLENE GLYCOL ALGINATE” (Primus Pharmaceuticals, Inc., priority 2022, published 2024)

Columns and labels:
[1] = test system: HMC3 microglial cells; assay: RT-qPCR mRNA expression in IL-1β-stimulated HMC3 microglial cells; type: cell-based, Human; details: metaxalone 10, 20, 40 μg/mL, p<0.0001 vs. IL-1β
Experimental: Human microglial HMC3 cell line (CRL-3304) was obtained from ATCC (American Type Culture Collection; Manassas, VA, USA). Cells were cultured in Eagle's minimum essential medium (EMEM) with a supplement of 10% fetal bovine serum (FBS) and 1% antibiotic mixture, and were incubated at 37° C. with 5% of CO2. Both medium and supplements were provided by ATCC (Manassas, VA, USA). Cells were seeded in 6-well plates at a density of 4×10^5 cells/well. A stock solution of metaxalone (Sigma Aldrich, Milan, Italy) was prepared by dissolving metaxalone in DMSO. Sixteen hours after plating (time 0), metaxalone was added at the doses of 10, 20, and 40 μg/mL 1 h following IL-1β stimulation (5 ng/mL; Sigma Aldrich, Milan, Italy). After 6 h cells were harvested for mRNA evaluation. In a separate set of plates, cells were incubated for 24 h before MTT assay to evaluate cell viability. The dose-response curve for IL-1β stimulation can be found at Supplemental FIG. S1. Total RNA was extracted from human microglial HMC3 for RT-qPCR using Trizol LS reagent (Invitrogen, Carlsbad, CA, USA). Two μg of total RNA was reverse transcribed in a final volume of 20 μL using a Superscript VILO kit (Invitrogen, Carlsbad, CA, USA). […] The final primer concentration used to carry out the analysis was 10 μM. Samples from each group were run in duplicate and β-actin was used as an endogenous control. Results were calculated using the 2-ΔΔCT method and expressed as n-fold increase in gene expression using control group as calibrator. […]. et al. Activation of A2A Receptor by PDRN Reduces Neuronal Damage and Stimulates WNT/β-CATENIN Driven Neurogenesis in Spinal Cord Injury. Front. Pharmacol. 2018, 9, 506. Pizzino, G. et al. Effects of the antagomiRs 15b and 200b on the altered healing pattern of diabetic mice. Br. J. Pharmacol. 2018, 175, 644-655.

[2] = test system: HMC3 microglial cells; assay: ELISA of cytokines in cell culture supernatants of IL-1β-stimulated HMC3 cells; type: cell-based, Human; details: metaxalone 10, 20, 40 μg/mL, dose-dependent, p<0.0001 vs. IL-1β
Experimental: Human microglial HMC3 cell line (CRL-3304) was obtained from ATCC (American Type Culture Collection; Manassas, VA, USA). Cells were cultured in Eagle's minimum essential medium (EMEM) with a supplement of 10% fetal bovine serum (FBS) and 1% antibiotic mixture, and were incubated at 37° C. with 5% of CO2. Both medium and supplements were provided by ATCC (Manassas, VA, USA). Cells were seeded in 6-well plates at a density of 4×10^5 cells/well. A stock solution of metaxalone (Sigma Aldrich, Milan, Italy) was prepared by dissolving metaxalone in DMSO. Sixteen hours after plating (time 0), metaxalone was added at the doses of 10, 20, and 40 μg/mL 1 h following IL-1β stimulation (5 ng/mL; Sigma Aldrich, Milan, Italy). After 6 h cells were harvested for mRNA evaluation. In a separate set of plates, cells were incubated for 24 h before MTT assay to evaluate cell viability. The dose-response curve for IL-1β stimulation can be found at Supplemental FIG. S1. Measurements of Cytokines by Enzyme-Linked Immunosorbent Assay (ELISA). Tumor necrosis factor-alpha (TNF-α), interleukin-6 (IL-6) and interleukin-13 (IL-13) were measured in the cell culture supernatants. The products under investigation were measured using enzyme-linked immunosorbent assay (ELISA) kits (Abcam, Cambridge, UK), in agreement with the instructions reported by the manufacturer. All the samples were evaluated in duplicate and the obtained results were interpolated with the pertinent standard curves. To evaluate the sample, the means of the duplicated sample were used and expressed in pg/mL.

[3] = test system: HMC3 cells; assay: Malonaldehyde (MDA) assay, lipid peroxidation in HMC3 cells; type: cell-based, Human; details: IL-1β-stimulated HMC3 cells; metaxalone 10, 20, 40 μg/mL; p<0.0001 vs. IL-1β
Excerpt: Malonaldehyde Assay. Metaxalone antioxidant effects were examined in HMC3 cells by measuring malonaldehyde (MDA) levels as a marker of lipid peroxidation, as previously described in detail. (See, Ceravolo, I. Et al., Health Potential of Aloe vera against Oxidative Stress Induced Corneal Damage: An “In Vitro” Study. Antioxidants 2021, 10, 318).

[4] = test system: HMC3 microglial cells
[5] = test system: Mouse Macrophages RAW264.7 cells; details: LPS-stimulated mouse macrophages; cited from earlier work
[6] = biological target: T1, monoamine oxidase A (MAO-A) (Homo sapiens, UniProt P21397); details: cited from earlier work
T1 sequence (P21397 1-527): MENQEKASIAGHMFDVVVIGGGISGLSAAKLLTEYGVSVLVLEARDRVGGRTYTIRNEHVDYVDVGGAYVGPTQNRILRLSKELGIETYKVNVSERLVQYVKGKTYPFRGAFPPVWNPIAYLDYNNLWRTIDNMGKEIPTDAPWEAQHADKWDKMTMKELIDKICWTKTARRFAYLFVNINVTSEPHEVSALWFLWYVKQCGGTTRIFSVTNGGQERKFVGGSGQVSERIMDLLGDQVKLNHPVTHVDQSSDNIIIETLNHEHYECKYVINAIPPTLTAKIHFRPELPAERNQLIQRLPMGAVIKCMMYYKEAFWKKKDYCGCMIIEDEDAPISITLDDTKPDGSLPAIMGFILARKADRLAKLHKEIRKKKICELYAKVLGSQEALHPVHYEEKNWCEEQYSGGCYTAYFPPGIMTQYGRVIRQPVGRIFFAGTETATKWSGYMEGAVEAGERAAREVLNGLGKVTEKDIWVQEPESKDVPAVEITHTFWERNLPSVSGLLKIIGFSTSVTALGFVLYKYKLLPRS

What does the source list for `Cc1cc(C)cc(OCC2CNC(=O)O2)c1` (stereo not drawn) [metaxalone, 5-[(3,5-dimethylphenoxy)methyl]-2-oxazolidinone]?
IL-6 mRNA expression ([1]; IL-1β (5 ng/mL)-stimulated HMC3 cells (IL-6 increased by IL-1β), 6 h, dose-dependent): significantly reverted; IL-13 mRNA expression ([1]; IL-1β (5 ng/mL)-stimulated HMC3 cells (IL-13 decreased by IL-1β), 6 h, dose-dependent): significantly reverted; TNF-α mRNA expression ([1]; IL-1β (5 ng/mL)-stimulated HMC3 cells (TNF-α increased by IL-1β), 6 h, dose-dependent): significantly reverted; NF-κB mRNA expression ([1]; IL-1β-stimulated HMC3 cells, dose-dependent): significantly reduced; NRF-2 mRNA expression ([1]; IL-1β-stimulated HMC3 cells): significantly upregulated; PGC-1α mRNA expression ([1]; IL-1β-stimulated HMC3 cells): marked increase; PPARγ mRNA expression ([1]; IL-1β-stimulated HMC3 cells): marked increase; MAO-A mRNA expression ([1]; IL-1β-stimulated microglia cells, dose-dependent): markedly reduced; IL-6 protein levels ([2]; supernatant of IL-1β-stimulated HMC3 cells (IL-6 increased by IL-1β)): significantly reverted; IL-13 protein levels ([2]; supernatant of IL-1β-stimulated HMC3 cells (IL-13 decreased by IL-1β)): significantly reverted; TNF-α protein levels ([2]; supernatant of IL-1β-stimulated HMC3 cells (TNF-α increased by IL-1β)): significantly reverted; MDA levels [3]: significant reduction; cell viability (MTT) [4]: did not produce any toxic effect; inflammatory cytokines [5]: robust reduction; MAO-A inhibition [6]: reported to inhibit
